Experimental data reported in patent US9226912B2, “Acetyltanshinone IIA (ATA) as anticancer agent” (Nanyang Technological University, priority 2011, dated 2016).
Like-named read-outs stand apart in the source and are kept apart here.

Legend:
MCF-7 = experiment: IC50 and LC50 of ATA at 48 h; assay type: cell-based; details: Homo sapiens, MCF7, MCF-7 breast cancer
MCF-7/HER2 cells = experiment: Growth inhibition of HER2 over-expressing cells at 72 h; assay type: cell-based
Excerpt: The efficacy of ATA on MCF-7 cells with over-expressed HER2 protein was investigated.

MCF-7 cells = experiment: Combinatorial effect of ATA with paclitaxel, MTT assay; assay type: cell-based; details: Homo sapiens, read-out: cell growth inhibition rate
Method: The effect was determined by measuring the rates of cell growth inhibition using MTT assay. (* p<0.01, compared with cells treated with either paclitaxel alone or ATA alone).
The inventors of the present invention have shown for the first time that ATA can increase the cytotoxic effect of paclitaxel. In the tests (FIG. 16) with five concentrations of ATA at 10, 5, 2.5, 1.25, 0.625 μM and five concentrations of paclitaxel at 1000, 100, 10, 1, 0.1 nM were used.

[1] = tested on: xenografted tumors derived from human melanoma MDA-MB-435 cells; experiment: Xenografted tumors in nude mice; assay type: in vivo; details: 30 mg/kg, 3×/week intraperitoneal, four weeks
Method: ATA (▴ 30 mg/kg), etoposide (▪ ETS, 20 mg/kg) and vehicle control (◯) were injected into mice 3×/week via intraperitoneal injection. Average tumor size (A) and mice body weight (B) were measured from five mice.
The anti-tumour effect of ATA was examined in nude mice (FIG. 13 and FIG. 14) carrying solid tumours generated by injecting human melanoma MDA-MB-435 cells into the mice subcutaneously. The tumour size and mouse body weight were monitored over a period of four weeks.

HeLa cells = experiment: ATA-induced cell death by cell counting under a microscope; assay type: cell-based; details: 10 μM or 20 μM ATA, 24 h or 48 h, YFP-Bcl-2 transfected HeLa
Method: HeLa cells were treated with 10 μM ATA for 12, 24, 36, and 48 h. The β-tubulin protein was probed as a loading control. […] HeLa cells were pre-treated with 2 μM pan-caspase inhibitor (z-VAD-fmk) for 2 h before ATA addition. Then 10 μM or 20 μM ATA were added. After 24 h and 48 h treatment, the number of died cells was counted under a microscope. (* p<0.01, compared with cells treated with ATA only). Control: cells without any treatment.
Overexpression of Bcl-2 inhibited ATA-induced cell death. HeLa cells transfected with either yellow fluorescent protein (YFP) (vector control) or YFP-Bcl-2 (Bcl-2) were treated with ATA at 10 or 20 μM. The percentage of cell death from YFP-positive cells was determined by cell counting under a fluorescence microscope. (* p<0.01, compared with vector control groups).
The inventors of the present invention have shown for the first time that ATA can activate the apoptotic pathway in cancer cells. […]
HeLa cells transfected with YFP-Bcl-2 or YFP only were treated with 10 μM or 20 μM ATA. After 24 h or 48 h treatment, the percentage of cell death in each sample was calculated by counting the numbers of fluorescence-positive cells either live (attached with a normal cell morphology) or dead (detached with a shrunk morphology) under a fluorescence microscope. […]

MDA-MB-435 cells = experiment: cells; assay type: cell-based; details: Homo sapiens, MDA-MB-435, 24 h, read-out: cell viability
Method: (A) ROS generation in various cancer cell lines was detected using H2DCFDA after 10 μM ATA treatment for 2 h. The number indicates the fold of increase in ROS level compared to control. (B) Antioxidant prevented ATA-induced MDA-MB-435 cell death. Various antioxidants at the indicated concentration were tested for their protective effects against ATA-induced MDA-MB-435 cell death. Cells were first pre-treated with each antioxidant for 1 h and then ATA was added into the culture medium in the presence of antioxidants. The cell viability was measured by sulforhodamine B (SRB) colorimetric assay for cytotoxicity determination (* p<0.01).
(A) PG prevented ATA-induced cell death. Three concentrations of PG were tested for their protective effects on ATA-induced cell death. The cell viability was measured by SRB assay. (* p<0.01). (B) PG protected ROS generation caused by ATA treatment. […] All the experiments were performed at least three times. The results presented in this figure are the average of three experiments. […]
Since the generation of ROS was detected in all six examined cell lines and it occurred only 2 h after ATA addition, which was at least 4-6 h ahead of Bax translocation, it was speculated that ATA-mediated ROS generation might be the cause for cell death. […] The percentage of cell death after 24 h of ATA treatment was measured using SRB cytotoxicity assay.

MDA-MB-231 = experiment: Growth inhibition at 72 h by MTT assay
BT474 = experiment: Growth inhibition at 72 h by MTT assay

CC(=O)Oc1c(OC(C)=O)c2c(C)coc2c2ccc3c(c12)CCCC3(C)C [ATA, 1,6,6-trimethyl-8,9-dihydro-10,11-diacetoxyl-7H-naphtho[1,2-g][1]benzofuran]
CC50 (MCF-7): 7.64 ± 0.3 µM
IC50 (MCF-7): 1.39 ± 0.64 µM
IC50 (MCF-7/HER2 cells; Homo sapiens, MCF7, MCF-7/HER2 cells, 72 h): 1 ± 0.23 µM
sensitivity of MCF-7/HER2 cells compared with MCF-7 cells (MCF-7/HER2 cells; paclitaxel 1×10^−3 μM to 10 μM, ATA 0.78 μM to 6.25 μM): higher sensitivity to ATA
inhibition at 2.5 µM (MCF-7 cells; MCF7, 2.5 μM ATA in combination with paclitaxel 1 nM): ~89%
inhibition at 2.5 µM (MCF-7 cells; MCF7, ATA alone at 2.5 μM): 71%
average body weight versus control mice [1]: did not significantly decrease
tumour growth [1]: significant inhibition on tumour growth
percentage of cell death in Bcl-2 over expressing cells versus normal Bcl-2 level (HeLa cells): significantly lower
viability at 5 µM (MDA-MB-435 cells): 35%
IC50 (MDA-MB-231; Homo sapiens, MDA-MB-231, 72 h): 7.98 ± 0.18 µM
inhibition at 3.13 µM (MDA-MB-231; Homo sapiens, MDA-MB-231, 72 h, read-out: growth inhibition rate): 32.3%
IC50 value at 72 h lower in ER-positive than ER-negative cells (MDA-MB-231; MCF-7 and T47D versus MDA-MB-231): 5.4-5.7 fold
IC50 ratio of tamoxifen/ATA (MDA-MB-231; MDA-MB-231 (ER−), 72 h): 2.7
Ratio of ER−/ER+ 231/MCF-7 (MDA-MB-231; ratio of IC50 at 72 h, MDA-MB-231 over MCF-7): 5.4
Ratio of ER−/ER+ 231/T47D (MDA-MB-231; ratio of IC50 at 72 h, MDA-MB-231 over T47D): 5.7
IC50 ratio of tamoxifen/ATA (BT474; BT474 (ER+/HER2+), 72 h): 6.2
IC50 (BT474; Homo sapiens, BT-474, 72 h): 1 µM
inhibition at 3.13 µM (BT474; Homo sapiens, BT-474, 72 h, read-out: growth inhibition rate): 146%
